Test results: patent US20050256003A1, “Novel herbicides” (priority 2002, published 2005)

Test system: selected test plants
Test: Post-emergence action in a different test arrangement (Table B3)
Assay type: in vivo
Set-up: key to Post-emergence action (different test arrangement), Nasturtium / Post-emergence action (different test arrangement), Stellaria / Post-emergence action (different test arrangement), Solanum: 10=total damage; 0=no action; Ratings of from 10 to 7 (especially from 10 to 8) indicate good to very good herbicidal action
Details: 250 g a.i./ha

Structure (SMILES) | Post-emergence action (different test arrangement), Amaranthus | Post-emergence action (different test arrangement), Nasturtium | Post-emergence action (different test arrangement), Solanum | Post-emergence action (different test arrangement), Stellaria
Cn1c(=O)n(Cc2nc(C(F)(F)F)ccc2C(=O)C2=C(O)CCCC2=O)c(=O)n1C [Compound A1.211] | 9 | 10 | 9 | 7
O=C1CCCC(O)=C1C(=O)c1ccc(C(F)(F)F)nc1CN1CCC1=O [Compound A1.221] | 9 | 10 | 9 | 9
O=C1CCCC(O)=C1C(=O)c1ccc(C(F)(F)F)nc1CN1CN(c2ccc(Cl)cc2)CC1=O [Compound A1.237] | 9 | 9 | 10 | 7
CN1CCN(Cc2nc(C(F)(F)F)ccc2C(=O)c2cnn(C)c2O)C1=O [Compound B1.211] | 9 | 10 | 9 | 8
Cc1nn(Cc2nc(C(F)(F)F)ccc2C(=O)C2=C(O)CCCC2=O)c(=O)o1 [Compound A1.097, 3-[3-(2-Hydroxy-6-oxo-cyclohex-1-enecarbonyl)-6-trifluoromethyl-pyridin-2-ylmethyl]-5-methyl-3H-[1.3.4]oxadiazol-2-one] | 9 | 10 | 9 | 9
Cc1nc(C)n(Cc2nc(C(F)(F)F)ccc2C(=O)C2=C(O)CCCC2=O)c(=O)c1Cl [Compound A1.209] | 7 | 9 | 9 | 7
COc1nn(Cc2nc(C(F)(F)F)ccc2C(=O)C2=C(O)CCCC2=O)c(=O)n1C [Compound A1.025] | 9 | 9 | 9 | 9
